Consider 55 molecules from patent US4036979A, “Compositions containing 4,5,6,7-tetrahydrobenz[b]thien-4-yl-ureas or derivatives and methods of enhancing growth rate” (American Cyanamid Company, priority 1976, dated 1977).

The structures appear in SMILES notation.

One assay is described as follows: Mouse Growth Regulant Tests (12-day weight gain over controls, compound in diet). The class given is in vivo, CFI female mice. The conditions noted are these: Mus musculus, feed or water, 288 h, Table VI; 50 ppm in diet. How it is done:
CFI female mice from Carworth Farms are received when they are six weeks old. They are housed ten to a cage in air-conditioned rooms (72° F. to 76° F.) with automatically controlled lights, 14 hours on and 10 hours off. The basal diet used in these studies is Purina Laboratory Chow (see description below), which is supplied ad libitum. Water is also allowed ad libitum.
Thirteen days after arrival, the mice are weighed in groups of ten and assigned at random to the different treatments. Twelve days later the mice are weighed again and the experiment terminated. At least three cages (30 mice) of untreated controls are included in each test. Test data are provided in Tables VI, VII, VIII, and IX below wherein data are reported as percent weight gain over controls. Unless otherwise indicated in these tables, all compounds tested were dl-racemic mixtures. The following is a description of the diet to which the growth promoting compounds were added.
Molecule `CCNC(=O)NC1CCCc2sccc21` (stereo not shown) [Table VI: O,H,H,H,H,C2H5, 1-ethyl-3-(4,5,6,7-tetrahydrobenzo[b]thien-4-yl)urea] showed a change in vivo at 50 ppm of 40.3%. On the same count and under the same terms, then `CNC(=O)NC1CCCc2sccc21` (stereo not shown) [Table VI: O,H,H,H,H,CH3, 1-methyl-3-(4,5,6,7-tetrahydrobenzo[b]thien-4-yl)urea], with 61.8%.

Still in this assay, the particulars now being: Mus musculus, feed or water, 288 h, Table VI; 200 ppm in diet.
`CCNC(=O)NC1CCCc2sccc21` (stereo not shown) [Table VI: O,H,H,H,H,C2H5, 1-ethyl-3-(4,5,6,7-tetrahydrobenzo[b]thien-4-yl)urea] yielded a change in vivo at 200 ppm of 87.6%.

With `CCCCNC(=O)NC1CCCc2sccc21` (stereo not shown) [Table VI: O,H,H,H,H,n-butyl], the change in vivo at 200 ppm was found to be 25%.

Staying with this assay, now noted: Mus musculus, feed or water, 288 h, Table VI; 400 ppm in diet.
In turn, `CN(Cc1ccccc1)C(=O)NC1CCCc2sccc21` (stereo not shown) [Table VI: O,H,H,H,CH3,CH2C6H5] yielded a change in vivo at 400 ppm of 14%. In turn, `C#CCN(C)C(=O)NC1CCCc2sccc21` (stereo not shown) [Table VI: O,H,H,H,CH3,CH2CCH] gave a change in vivo at 400 ppm of 29%. `CN(C)C(=O)NC1CCCc2sccc21` (stereo not shown) [Table VI: O,H,H,H,CH3,CH3, 1,1-dimethyl-3-(4,5,6,7-tetrahydrobenzo[b]thien-4-yl)urea] came in with a change in vivo at 400 ppm of 55.1%. Same read-out and setting: then `CON(C)C(=O)NC1CCCc2sccc21` (stereo not shown) [Table VI: O,H,H,H,CH3,OCH3, 1-methoxy-1-methyl-3-(4,5,6,7-tetrahydrobenzo[b]thien-4-yl)urea], with 107%; and `CN(O)C(=O)NC1CCCc2sccc21` (stereo not shown) [Table VI: O,H,H,H,CH3,OH, 1-hydroxy-1-methyl-3-(4,5,6,7-tetrahydrobenzo[b]thien-4-yl)urea], with 49.6%. Same read-out and setting: then `CC(C)N(O)C(=O)NC1CCCc2sccc21` (stereo not shown) [Table VI: O,H,H,H,CH(CH3)2,OH], with 32%; and `CCNC(=O)NC1CCCc2sccc21` (stereo not shown) [Table VI: O,H,H,H,H,C2H5, 1-ethyl-3-(4,5,6,7-tetrahydrobenzo[b]thien-4-yl)urea], with 87.6%; and `O=C(NCc1ccccc1)NC1CCCc2sccc21` (stereo not shown) [Table VI: O,H,H,H,H,CH2C6H5, 1-benzyl-3-(4,5,6,7-tetrahydrobenzo[b]thien-4-yl)urea], with 32.4%.

`C#CCNC(=O)NC1CCCc2sccc21` (stereo not shown) [Table VI: O,H,H,H,H,CH2CCH] had a change in vivo at 400 ppm of 82%.

`O=C(NCC(F)(F)F)NC1CCCc2sccc21` (stereo not shown) [Table VI: O,H,H,H,H,CH2CF3] gave a change in vivo at 400 ppm of 19%. For `O=C(NCCc1ccccc1)NC1CCCc2sccc21` (stereo not shown) [Table VI: O,H,H,H,H,CH2CH2C6H5, 1-phenethyl-3-(4,5,6,7-tetrahydrobenzo[b]thien-4-yl)urea], the change in vivo at 400 ppm turned out to be 72.3%. Consider `O=C(NCCO)NC1CCCc2sccc21` (stereo not shown) [Table VI: O,H,H,H,H,CH2CH2OH], for which the change in vivo at 400 ppm is 3%.

As for `COC(CNC(=O)NC1CCCc2sccc21)OC` (stereo not shown) [Table VI: O,H,H,H,H,CH2CH(OCH3)2], the change in vivo at 400 ppm came out at 22%. Still for that read-out and setting: then `C=CCNC(=O)NC1CCCc2sccc21` (stereo not shown) [Table VI: O,H,H,H,H,CH2CHCH2], with 48.4%; and `N#CCNC(=O)NC1CCCc2sccc21` (stereo not shown) [Table VI: O,H,H,H,H,CH2CN], with 12%; and `COCNC(=O)NC1CCCc2sccc21` (stereo not shown) [Table VI: O,H,H,H,H,CH2OCH3, 1-(methoxymethyl)-3-(4,5,6,7-tetrahydrobenzo[b]thien-4-yl)urea], with 102%.

As to `CNC(=O)NC1CCCc2sccc21` (stereo not shown) [Table VI: O,H,H,H,H,CH3, 1-methyl-3-(4,5,6,7-tetrahydrobenzo[b]thien-4-yl)urea], the change in vivo at 400 ppm worked out at 134%.

The molecule `CC(C)NC(=O)NC1CCCc2sccc21` (stereo not shown) [Table VI: O,H,H,H,H,CH(CH3)2, 1-isopropyl-3-(4,5,6,7-tetrahydrobenzo[b]thien-4-yl)urea] showed a change in vivo at 400 ppm of 88%. The same measure, in the same setting: then `N#CNC(=O)NC1CCCc2sccc21` (stereo not shown) [Table VI: O,H,H,H,H,CN], with 1%. Still for that read-out and setting: then `CN(C)NC(=O)NC1CCCc2sccc21` (stereo not shown) [Table VI: O,H,H,H,H,N(CH3)2], with 3%; and `COC(=O)NNC(=O)NC1CCCc2sccc21` (stereo not shown) [Table VI: O,H,H,H,H,NHCO2CH3], with 18%; and `CCONC(=O)NC1CCCc2sccc21` (stereo not shown) [Table VI: O,H,H,H,H,OC2H5, 1-ethoxy-3-(4,5,6,7-tetrahydrobenzo[b]-thien-4-yl)urea], with 61%. Consider `O=C(NOCc1ccccc1)NC1CCCc2sccc21` (stereo not shown) [Table VI: O,H,H,H,H,OCH2C6H5, 1-benzyloxy-3-(4,5,6,7-tetrahydrobenzo[b]thien-4-yl)urea], for which the change in vivo at 400 ppm came to 7.8%. `C=CCONC(=O)NC1CCCc2sccc21` (stereo not shown) [Table VI: O,H,H,H,H,OCH2CHCH2] registered a change in vivo at 400 ppm of 5%.

With `O=C(O)CONC(=O)NC1CCCc2sccc21` (stereo not shown) [Table VI: O,H,H,H,H,OCH2CO2H], the change in vivo at 400 ppm came to 63.3%. Molecule `CONC(=O)NC1CCCc2sccc21` (stereo not shown) [Table VI: O,H,H,H,H,OCH3, 1-methoxy-3-(4,5,6,7-tetrahydrobenzo[b]thien-4-yl)urea] gave a change in vivo at 400 ppm of 68.6%. `O=C(NO)NC1CCCc2sccc21` (stereo not shown) [Table VI: O,H,H,H,H,OH, 1-hydroxy-3-(4,5,6,7-tetrahydrobenzo[b]thien-4-yl)urea] displayed a change in vivo at 400 ppm of 103%.

The molecule `CCCCCCONC(=O)NC1CCCc2sccc21` (stereo not shown) [Table VI: O,H,H,H,H,On-C6H13] returned a change in vivo at 400 ppm of 29%.

`CCCCCCNC(=O)NC1CCCc2sccc21` (stereo not shown) [Table VI: O,H,H,H,H,n-hexyl, 1-(n-hexyl)-3-(4,5,6,7-tetrahydrobenzo[b]thien-4-yl)urea] registered a change in vivo at 400 ppm of 14.5%. Still for that read-out and setting: as for `CCCCN(CCCC)C(=O)NC1CCCc2sccc21` (stereo not shown) [Table VI: O,H,H,H,n-butyl,n-butyl, 1,1-dibutyl-3-(4,5,6,7-tetrahydrobenzo[b]thien-4-yl)urea], the figure is 6%. On the same count and under the same terms, then `NC(=O)NC1CCCc2sc([N+](=O)[O-])cc21` (stereo not shown) [Table VI: O,NO2,H,H,H,H, 2-nitro-4,5,6,7-tetrahydrobenzo[b]thien-4-ylurea], with 17%; and `CNC(=S)NC1CCCc2sc(C)cc21` (stereo not shown) [Table VI: S,CH3,H,H,CH3,H], with 88.5%. For `CON(C)C(=S)NC1CCCc2sccc21` (stereo not shown) [Table VI: S,H,H,H,CH3,OCH3], the change in vivo at 400 ppm turned out to be 66%. The same measure, in the same setting: then `CCNC(=S)NC1CCCc2sccc21` (stereo not shown) [Table VI: S,H,H,H,H,C2H5, 1-ethyl-3-(4,5,6,7-tetrahydrobenzo[b]thien-4-yl)thiourea], with 54.6%; and `C=CCNC(=S)NC1CCCc2sccc21` (stereo not shown) [Table VI: S,H,H,H,H,CH2CHCH], with 60%; and `CCOC(=O)NC(=S)NC1CCCc2sccc21` (stereo not shown) [Table VI: S,H,H,H,H,CO2C2H5], with 22.3%. `NC(=S)NC1CCCc2sccc21` (stereo not shown) [Table VI: S,H,H,H,H,H, 4,5,6,7-tetrahydrobenzo[b]thien-4-yl thiourea] displayed a change in vivo at 400 ppm of 11%. On to `CCCCCCCCNC(=S)NC1CCCc2sccc21` (stereo not shown) [Table VI: S,H,H,H,H,n-C8H17], for which the change in vivo at 400 ppm is 16%. Molecule `CCCCNC(=S)NC1CCCc2sccc21` (stereo not shown) [Table VI: S,H,H,H,H,n-butyl] registered a change in vivo at 400 ppm of 75%.

Staying with this assay, now noted: Mus musculus, feed or water, 288 h, Table VII; 200 ppm in diet.
`CN(C)C(=O)NC1CCC(=O)c2sccc21` (stereo not shown) [Table VII: O,CH3,CH3, 1,1-dimethyl-3-(4,5,6,7-tetrahydro-7-oxobenzo[b]thien-4-yl)urea]: the change in vivo at 200 ppm is 58.6%. Still for that read-out and setting: as for `CON(C)C(=O)NC1CCC(=O)c2sccc21` (stereo not shown) [Table VII: O,CH3,OCH3, 1-methoxy-1-methyl-3-(4,5,6,7-tetrahydro-7-oxobenzo[b]thien-4-yl)urea], the figure is 62.6%; as for `CN(O)C(=O)NC1CCC(=O)c2sccc21` (stereo not shown) [Table VII: O,CH3,OH], 31.3%; as for `C#CCNC(=O)NC1CCC(=O)c2sccc21` (stereo not shown) [Table VII: O,H,CH2CCH, 1-(2-propynyl)-3-(4,5,6,7-tetrahydro-7-oxobenzo[b]thien-4-yl)urea], 40.6%.

For the molecule `CONC(=O)NC1CCC(=O)c2sccc21` (stereo not shown) [Table VII: O,H,OCH3], the change in vivo at 200 ppm was found to be 71%. Same read-out and setting: as for `CC(C)NC(=O)NC1CCC(=O)c2sccc21` (stereo not shown) [Table VII: O,H,iso-C3H7], the figure is 84%.

The same assay, now with this note: Mus musculus, feed or water, 288 h, Table VII; 400 ppm in diet.
On to `CCNC(=O)NC1CCC(=O)c2sccc21` (stereo not shown) [Table VII: O,H,C2H5, 1-ethyl-3-(4,5,6,7-tetrahydro-7-oxobenzo[b]thien-4-yl)urea], for which the change in vivo at 400 ppm was determined as 79.3%. On the same count and under the same terms, as for `C=CCNC(=O)NC1CCC(=O)c2sccc21` (stereo not shown) [Table VII: O,H,CH2CHCH2], the figure is 58.7%; as for `COCNC(=O)NC1CCC(=O)c2sccc21` (stereo not shown) [Table VII: O,H,CH2OCH3, 1-(methoxymethyl)-3-(4,5,6,7-tetrahydro-7-oxobenzo[b]thien-4-yl)urea], 143%.

For `CNC(=O)NC1CCC(=O)c2sccc21` (stereo not shown) [Table VII: O,H,CH3, 1-methyl-3-(4,5,6,7-tetrahydro-7-oxobenzo[b]thien-4-yl)urea], the change in vivo at 400 ppm worked out at 64.8%.

`CCCCCCCCNC(=O)NC1CCC(=O)c2sccc21` (stereo not shown) [Table VII: O,H,n-C8H17]: the change in vivo at 400 ppm is 83.4%. Molecule `CCCCCCCCCCNC(=O)NC1CCC(=O)c2sccc21` (stereo not shown) [Table VII: O,H,n-C10H21] came in with a change in vivo at 400 ppm of 15.4%. In turn, `CCCCCCCCCCCCNC(=O)NC1CCC(=O)c2sccc21` (stereo not shown) [Table VII: O,H,n-C12H25, 1-n-dodecyl-3-(4,5,6,7-tetrahydro-7-oxobenzo[b]thien-4-yl)urea] returned a change in vivo at 400 ppm of 4.1%. `CCCCCCCCCCCCCCNC(=O)NC1CCC(=O)c2sccc21` (stereo not shown) [Table VII: O,H,n-C14H29] gave a change in vivo at 400 ppm of 9.7%.

The molecule `CNC(=S)NC1CCC(=O)c2sccc21` (stereo not shown) [Table VII: S,H,CH3] had a change in vivo at 400 ppm of 62.5%.
